Assay results taken from patent US20100285611A1, “PHOTOBLEACHING RESISTANT PH SENSITIVE DYE NANOREACTORS WITH DUAL WAVELENGTH EMISSION” (priority 2009, published 2010).
Where two headings read alike, the source gives them in different places.

What was measured:
[1] = pH dependent fluorescence emission spectra of cSNARF-1 (modified Henderson-Hasselbalch analysis); assay type: physicochemical
Method: Absorption spectra were obtained using a UV Mini 1240 spectrophotometer (Shimadzu Scientific Instruments, Columbia, Md.) in a 1-cm path length quartz cuvette. The total concentration of encapsulated cSNARF-1 in the suspensions was determined at pH 7 using the extinction coefficient of 27,000 L-mol-1-cm-1 at the absorbance maximum of 548 nm. Fluorescence spectra were obtained using a Cary Eclipse fluorescence spectrophotometer (Varian, Walnut Creek, Calif.) with excitation wavelength of 514 nm and collecting emissions over the range of 550 nm to 750 nm at room temperature. […] The pH was adjusted using 0.1 N HCl or NaOH, starting from pH 7 to either the higher or lower limit of pH and back. All spectra were corrected for dilution.
A more quantitative analyses of these changes in fluorescence intensity may be carried out using the modified Henderson-Hasselbalch equation. For a dye with dual wavelength emissions, the ratio of fluorescence intensity over a given pH range elucidates the dye's pKa as:
where Ri is the fluorescence intensity ratio of the two wavelengths (582 nm and 635 nm) at pHi, Rmin and Rmax are the minimum and maximum limiting values of Ri, respectively. The value of I(A)/I(B) is obtained from the emission intensities at 635 nm for the limiting acidic, I(A), and basic, I(B), pH regions. In practice, to elucidate the pKa of each sample, first the pH1/2 value, at which (Ri−Rmin)=(Rmax−Ri) or R1/2=(½) (Rmax+Rmin) was determined to make the second term of the right hand side of equation equal to zero. The value of pH1/2 was then subtracted by log(I(A)/I(B)) to estimate the pKa value.
To estimate the pH1/2 and I(A)/I(B) from the experiment, the fluorescence intensity changes at 635 nm and 582 nm, and their ratios were plotted against the pH values as shown in FIG. 4B. For elucidation of both pH1/2 and I(A)/I(B), it is important to note that well defined limiting intensities at both extreme ends of acidic and basic pHs must be available. Furthermore, the spectral changes shown in each of FIG. 4A should have a well defined isoemissive point to assure that the integrity of spectral chromophores is maintained throughout the entire pH range. Once pH1/2, Rmin, Rmax, and I(A)/I(B) are determined, the value for “c” may be estimated from the least squares fit of the equation to the experimental results shown as filled circles in FIG. 4B.

[2] = Photobleaching under 300 W Xenon lamp; assay type: physicochemical; conditions: after 100 minutes; 300 W Xenon lamp 15 cm away; DI water pH 9; 30° C.; 640 nm
Method: cSNARF-1 in DI water at pH 9 and the nanoreactors in the same solvent was placed into covered 1 cm-path length quartz cuvettes and kept at 30° C. using a circulating water bath while being continuously exposed to the emission of a 300 W Xenon lamp placed 15 cm away. […] The fluorescence intensity at 640 nm was recorded at 5 or 10 minute intervals.

[3] = Stopped flow kinetics of fluorescence response to pH change; assay type: physicochemical
Method: The time dependent response of cSNARF-1 solution and nanoreactors to the pH change was measured at 20° C. using an RX2000 Stopped-Flow Mixing Accessory (Applied Photophysics Limited, Leatherhead, UK) attached to the Cary Eclipse fluorescence spectrophotometer. The mixing time of this system is reported to be 8 msec, and the response time of Eclipse is 1 msec. To estimate the response time of the nanoreactors, they were first adjusted to pH 10 then mixed with a 50 mM phosphate buffer solution at pH 2. By exciting cSNARF-1 at 514 nm during this process, the pH-responsive fluorescence change at 582 nm was recorded.

[4] = at room temperature; cited from earlier work
[5] = solvent Water, excitation 514 nm

Acidic peak ([1]; solvent 1.5% IgG sln): 584 nm
Basic peak ([1]; solvent 1.5% IgG sln): 633 nm
c ([1]; solvent 1.5% IgG sln): −0.78
log{I[A]/I[B]} ([1]; solvent 1.5% IgG sln): −0.47
pH 1/2 ([1]; solvent 1.5% IgG sln): 7.25
pKa ([1]; solvent 1.5% IgG sln): 7.72
pKa ([1]; solvent Water): 7.46
log{I[A]/I[B]} ([1]; solvent Water, emission intensities at 635 nm, limiting acidic and basic pH): −0.31
Acidic peak [1, 5]: 581 nm
Basic peak [1, 5]: 633 nm
pH 1/2 ([1]; solvent Water, excitation 514 nm, room temperature): 7.15
c ([1]; solvent Water, least squares fit of Equation 1): −1.17
loss of fluorescence intensity [2]: 30%
Substance: 5-(and-6)-Carboxy-seminaphthorhodafluor-1 [cSNARF-1]
time for change in fluorescence intensity (67%) ([3]; pH change from pH 10 to 5, average of three traces (FIG. 7 legend)): 175 ms
time for 65% change in fluorescence intensity (t65%) ([3]; response to pH change, average of three traces, 20° C., excitation 514 nm, emission 582 nm): 175 ms
pKa [4]: 7.5
